Test results taken from patent US20130143886A1, “METHODS FOR PRESERVING AND/OR INCREASING RENAL FUNCTION USING XANTHINE OXIDOREDUCTASE INHIBITORS” (priority 2006, published 2013).
Entries after “also recorded” stand apart in the source; their conditions may differ.

Legend:
Assay type in all cases: in vivo, Male Wistar rats
remnant kidney (RK) rats [1] = experiment: Body weight, food and water intake in remnant kidney rats; settings: for BW / BW Gain (from baseline): End of Week 4
Protocol: Male Wistar rats (295-340 g) were used to produce rats with remnant kidney (RK) as follows. […] Rats were then assigned to one of four treatment groups: Group 1, RK control rats (n=7); Group 2, RK+febuxostat (Fx) rats (n=8); Group 3, RK+oxonic acid (OA) rats (n=6); and Group 4, RK+OA+Fx (n=10). Oxonic acid (OA) (Sigma-Aldrich, St Louis Mo., USA), administered at 750 mg/kg body weight daily by oral gavage, was given starting the day after the ⅚ nephrectomy. Beginning immediately following the surgery, febuxostat was administered in drinking water at 30 mg/L (3-4 mg/kg/day), whereas the respective controls received only drinking water (with 3.5 mg/L of NaCl added to keep an equivalent salt concentration to the Fx-containing water). All groups were treated for four weeks. Body weight (beginning just before surgery) and food and water intakes were measured daily. Systolic blood pressure, measured in conscious rats by a tail cuff sphygmomanometer, and plasma uric acid (UA) levels were measured at just before surgery (namely, at baseline) and at the end of the four weeks. Proteinuria was measured at baseline and at the end of two and four weeks. A renal micropuncture procedure along with systemic blood pressure monitoring under pentobarbital anesthesia was performed at the end of four weeks followed by morphologic evaluation of the renal preglomerular microvasculature. Food and water intake were determined daily. Systolic blood pressure (SBP) was measured by a tail-cuff sphygmomanometer using an automated system (XBP-100; Kent Scientific Co, Torrington, Conn., USA) in conscious animals. All animals were preconditioned for blood pressure measurements one week before each experiment. Plasma uric acid was quantified using a commercial kit (Diagnostic Chemicals Ltd, Charlottetown, PEI, Canada). Proteinuria was determined by turbidimetry by the method of trichloroacetic acid as described in Henry R J et al., “Turbidimetric determination of proteins with sulfosalicylic and tricholoroacetic acids”, Proc Soc Exp Biol Med 92:748-751 (1956), the contents of which are herein incorporated by reference.

remnant kidney (RK) rats [2] = experiment: Systolic blood pressure by tail cuff in conscious remnant kidney rats; settings: all four groups, after four weeks; corroborated by mean arterial pressure under anesthesia
Protocol: Male Wistar rats (295-340 g) were used to produce rats with remnant kidney (RK) as follows. […] Rats were then assigned to one of four treatment groups: Group 1, RK control rats (n=7); Group 2, RK+febuxostat (Fx) rats (n=8); Group 3, RK+oxonic acid (OA) rats (n=6); and Group 4, RK+OA+Fx (n=10). Oxonic acid (OA) (Sigma-Aldrich, St Louis Mo., USA), administered at 750 mg/kg body weight daily by oral gavage, was given starting the day after the ⅚ nephrectomy. […] Body weight (beginning just before surgery) and food and water intakes were measured daily. Systolic blood pressure, measured in conscious rats by a tail cuff sphygmomanometer, and plasma uric acid (UA) levels were measured at just before surgery (namely, at baseline) and at the end of the four weeks. Proteinuria was measured at baseline and at the end of two and four weeks. […] Food and water intake were determined daily. Systolic blood pressure (SBP) was measured by a tail-cuff sphygmomanometer using an automated system (XBP-100; Kent Scientific Co, Torrington, Conn., USA) in conscious animals. […] Plasma uric acid was quantified using a commercial kit (Diagnostic Chemicals Ltd, Charlottetown, PEI, Canada). […]

remnant kidney (RK) rats [3] = experiment: Renal arteriolar morphology
Protocol: Male Wistar rats (295-340 g) were used to produce rats with remnant kidney (RK) as follows. […] Rats were then assigned to one of four treatment groups: Group 1, RK control rats (n=7); Group 2, RK+febuxostat (Fx) rats (n=8); Group 3, RK+oxonic acid (OA) rats (n=6); and Group 4, RK+OA+Fx (n=10). Oxonic acid (OA) (Sigma-Aldrich, St Louis Mo., USA), administered at 750 mg/kg body weight daily by oral gavage, was given starting the day after the 5⁄6 nephrectomy. Beginning immediately following the surgery, febuxostat was administered in drinking water at 30 mg/L (3-4 mg/kg/day), whereas the respective controls received only drinking water (with 3.5 mg/L of NaCl added to keep an equivalent salt concentration to the Fx-containing water). After the micropuncture study, kidneys were washed by perfusion with phosphate-buffered saline and then fixed with 4% paraformaldehyde. Renal biopsies were embedded in paraffin. Sections of 4-μm thick fixed tissue were stained with periodic acid Schiff (PAS) reagent and Masson's trichrome staining. Arteriolar morphology was assessed by indirect peroxidase immunostaining for alpha-smooth muscle actin (DAKO Corp, Carpinteria, Calif., USA). Renal sections incubated with normal rabbit serum were used as negative controls for immunostaining against alpha smooth-muscle actin. For each arteriole, the outline of the vessel and its internal lumen (excluding the endothelium) were generated using computer analysis to calculate the total medial area (outline inline), in 10 arterioles per biopsy. The media/lumen ratio was calculated by the outline/inline relationship (See, Sanchez-Lozada L G et al., “Mild hyperuricemia induces glomerular hypertension in normal rats”, Am J Physiol Renal Physiol 283:[…]-[…] (2002); Sanchez-Lozada L G, et al., “Mild hyperuricemia induces vasoconstriction and maintains glomerular hypertension in normal and remnant kidney rats,” Kidney Int 67:237-247 (2005), the contents of each are herein incorporated by reference). Quantifications were performed blinded.

remnant kidney (RK) rats [4] = experiment: Tubulointerstitial fibrosis quantification; settings: febuxostat in both RK and RK+OA rats
Protocol: Male Wistar rats (295-340 g) were used to produce rats with remnant kidney (RK) as follows. […] Rats were then assigned to one of four treatment groups: Group 1, RK control rats (n=7); Group 2, RK+febuxostat (Fx) rats (n=8); Group 3, RK+oxonic acid (OA) rats (n=6); and Group 4, RK+OA+Fx (n=10). Oxonic acid (OA) (Sigma-Aldrich, St Louis Mo., USA), administered at 750 mg/kg body weight daily by oral gavage, was given starting the day after the ⅚ nephrectomy. […] Arteriolar morphology was assessed by indirect peroxidase immunostaining for alpha-smooth muscle actin (DAKO Corp, Carpinteria, Calif., USA). […] The degree of tubulointerstitial fibrosis was quantified in 10 non-crossed fields of cortex (100×) per biopsy. Slides were analyzed by light microscopy (Olympus BX51; Olympus American, Melville, N.Y., USA) and captured by a digital video camera (CoolSnap Pro; Media Cybernetics, Silver Spring, Md., USA). Pictures were processed on a computer and analyzed using Image Pro-Plus (version 5.0; Media Cybernetics, Silver Spring, Md., USA). Taking advantage of the capabilities of color recognition with this software, positive blue-stained areas (fibrosis) were selected and quantified in pixel units; glomeruli and vessels were previously excluded from the field. For each biopsy, the mean amount of positive blue-stained area was calculated by averaging the values from ten examined fields.

[5] = RK + OA + Fx group (OA-induced hyperuricemia)
[6] = RK + OA + Fx group (OA-induced hyperuricemia), Week 1
[7] = RK + OA + Fx group (OA-induced hyperuricemia), Week 2
[8] = RK + OA + Fx group (OA-induced hyperuricemia), Week 3
[9] = RK + OA + Fx group (OA-induced hyperuricemia), Week 4
[10] = RK rats (RK + Fx or RK + OA group)
[11] = RK rats (RK + Fx or RK + OA group), Week 1
[12] = RK rats (RK + Fx or RK + OA group), Week 2
[13] = RK rats (RK + Fx or RK + OA group), Week 3
[14] = RK rats (RK + Fx or RK + OA group), Week 4

Cc1nc(-c2ccc(OCC(C)C)c(C#N)c2)sc1C(=O)O [febuxostat, 2-[3-cyano-4-(2-methylpropoxy)phenyl]-4-methylthiazole-5-carboxylic acid]
BW (remnant kidney (RK) rats [1]; [5]): 316.7 ± 12.3 g
BW Gain (from baseline) (remnant kidney (RK) rats [1]; [5]): -3.0 ± 11.5 g
Daily Food Intake (remnant kidney (RK) rats [1]; [6]): 8.7 ± 1.7 g
Daily Water Intake (remnant kidney (RK) rats [1]; [6]): 30.2 ± 2.8 mL
Daily Food Intake (remnant kidney (RK) rats [1]; [7]): 16.0 ± 0.7 g
Daily Water Intake (remnant kidney (RK) rats [1]; [7]): 40.6 ± 2.6 mL
Daily Food Intake (remnant kidney (RK) rats [1]; [8]): 18.4 ± 0.5 g
Daily Water Intake (remnant kidney (RK) rats [1]; [8]): 38.6 ± 1.0 mL
Daily Food Intake (remnant kidney (RK) rats [1]; [9]): 18.6 ± 0.5 g
Daily Water Intake (remnant kidney (RK) rats [1]; [9]): 40.5 ± 1.6 mL
BW (remnant kidney (RK) rats [1]; [10]): 340.6 ± 10.8 g
BW Gain (from baseline) (remnant kidney (RK) rats [1]; [10]): 18.4 ± 8.2 g
Daily Food Intake (remnant kidney (RK) rats [1]; [11]): 8.6 ± 1.5 g
Daily Water Intake (remnant kidney (RK) rats [1]; [11]): 31.5 ± 1.4 mL
Daily Food Intake (remnant kidney (RK) rats [1]; [12]): 15.4 ± 0.5 g
Daily Water Intake (remnant kidney (RK) rats [1]; [12]): 32.6 ± 1.2 mL
Daily Food Intake (remnant kidney (RK) rats [1]; [13]): 20.2 ± 0.5 g
Daily Water Intake (remnant kidney (RK) rats [1]; [13]): 37.2 ± 2.5 mL
Daily Food Intake (remnant kidney (RK) rats [1]; [14]): 22.4 ± 1.3 g
Daily Water Intake (remnant kidney (RK) rats [1]; [14]): 39.4 ± 1.6 mL
Water intake in RK rats during febuxostat treatment (in words) (remnant kidney (RK) rats [1]; RK rats, normal daily water intake 35-40 mL): reduced to near normal levels
Body weight or body weight gain between the four treatment groups (in words) (remnant kidney (RK) rats [1]; end of the study): no significant differences in body weight or body weight gain
Systolic blood pressure (in words) (remnant kidney (RK) rats [2]): developed systemic hypertension to approximately the same degree
Thickening of preglomerular vessels / afferent arteriole (in words) (remnant kidney (RK) rats [3]; RK rats vs RK control group): prevented the thickening of preglomerular vessels
Additional thickening of the afferent arteriole (in words) (remnant kidney (RK) rats [3]; RK+OA rats treated with febuxostat): prevented
Media/lumen (M/L) ratio (in words) (remnant kidney (RK) rats [3]; febuxostat-treated rats vs respective untreated cohorts): no statistically significant differences; also recorded: tendency for the M/L ratio to be lower
Tubulointerstitial (TI) fibrosis (in words) (remnant kidney (RK) rats [4]): significantly decreased
